Assay: gradient 5% acetonitrile 3 min, to 50% in 2 min, to 85% in 15 min, held 3 min, 100 µL/min
Conditions: column: Zorbax Extend-C18 2.1 x 50 mm; eluents: water / acetonitrile, 0.1% formic acid
How it was run: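 Standards, all pure, were combined into mixtures of ~100 molecules and run at 100 μL/min on a Zorbax Extend-C18 column (2.1 × 50 mm, 1.8 μm) with water and acetonitrile, each containing 0.1% formic acid. A coupled quadrupole time-of-flight mass spectrometer operated in positive and negative ionization mode. Retention time values come from computationally picked adduct peaks, each inspected manually.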

SMILES | RP-LC retention time [s]
COc1ccc(-n2cc(C(=O)OCC(=O)OC(C)(C)C)c3ccccc3c2=O)cc1 | 1140
O=C(NCc1ccccc1Cl)c1coc(NC(=O)c2cccs2)n1 | 719
CCCN1CCN(CCCNC(=O)CCCn2c(=O)c3cccn3c3ccc(F)cc32)CC1 | 584
Clc1ccc(-c2nnc(-c3nc(NCc4cccnc4)c4ccccc4n3)o2)cc1 | 680
O=C([C@@H]1C[C@H](F)CN1S(=O)(=O)c1ccc(F)c(F)c1)N1CCCCC1 | 780
CCNC(=O)C1CCN(S(=O)(=O)c2cc(-c3noc(CC)n3)cs2)CC1 | 767
CN(CC1CCOCC1)C(=O)Nc1ccc(Cl)cc1F | 726
O=C(CSc1nnc(CCN2CCOCC2)o1)Nc1ccc(F)c(Cl)c1 | 571
O=C(NCCc1cccnc1)C1CN(S(=O)(=O)c2ccccc2)CC12CCCCC2 (stereo unspecified) | 664
COc1cccc(S(=O)(=O)N2CCC3(CC2)c2nccn2CCN3C)c1 | 607
COc1ccc(Cc2nnc(NC(=O)c3cnc4ccccc4n3)o2)cc1 | 722
CCOc1ccc(C(=O)NCC(=O)Nc2nc3ccccc3[nH]2)cc1 | 648
CC(=O)c1ccc(NC(=O)CC(C)n2cncn2)cc1 (stereo unspecified) | 604
CN(C1CCOCC1)C1CCN(C(=O)CCc2nc3ccccc3[nH]2)CC1 | 519
CCOC(=O)c1ccc(Nc2ncnc3c2cnn3C)cc1 | 817
Cc1oc(-c2[nH]ncc2C(=O)N(C)C)cc1S(=O)(=O)NCc1ccc(Cl)cc1 | 725
CCCN1CCN(c2ncc3c(n2)CCN(Cc2ccc(OCC)c(OCC)c2)C3)CC1 | 579
CCn1ncn2cc(S(=O)(=O)NC(C)c3ccccc3)cc2c1=O (stereo unspecified) | 838
COCC(=O)N(C1CCOCC1)C1CCN(S(=O)(=O)c2cccnc2)CC1 | 641
Cc1ccnc(N2CCC(C(=O)NCCCN3CCCCC3)CC2)n1 | 559
CCCCNC(=O)Cc1nnc(-c2cccc(F)c2)o1 | 731
O=S(=O)(Cc1ccccc1Cl)NCCN1CCN(c2ccc(F)cc2)CC1 | 591

SMILES | RP-LC retention time [s]
O=C(O)c1ccc2c(c1)nc(Nc1cccc(Cl)c1)c1ccncc12 | 845
COC(=O)c1ccc(C(=O)NCC2(CO)CC2)cc1 | 611
CC1CCN(S(=O)(=O)N2CCC(C(=O)N3CCC(Cc4nncn4CC4CC4)CC3)CC2)CC1 | 751
CC(C)CCNC(=O)N1CCC2(CC1)C(=O)N(C)c1ccccc12 | 813
CC1CCN(C(=O)C2CCc3sc(C(=O)N4CCOCC4)cc3C2)CC1 (stereo unspecified) | 776
CC(C)N1C(=O)C(C)(C(=O)NCc2ccccc2)Oc2cccnc21 (stereo unspecified) | 912
O=C(CN1CCN(c2ccc(F)c(F)c2)C1=O)NC1CCS(=O)(=O)C1 (stereo unspecified) | 636
Cc1cc(S(=O)(=O)NCC(c2cccs2)S(=O)(=O)c2ccccc2)ccc1F (stereo unspecified) | 906
Cc1nc(C(=O)NCc2ccc(F)cc2Cl)c(C)o1 | 874
CC(NC(=O)c1cccc(N(C)C)c1)C(=O)Nc1nc2ccccc2[nH]1 (stereo unspecified) | 603
COc1ccc(OC)c(S(=O)(=O)N2CCCC(C(=O)NC(C)C)C2)c1 (stereo unspecified) | 714
CCNc1nc(-c2ccccc2F)no1 | 761
CCOC(=O)c1c(C)[nH]c(C(=O)N2CCCC(C(=O)NCc3ccc(C)o3)C2)c1C (stereo unspecified) | 790
COc1ccccc1CC(=O)N1CCC2(CC1)N=C(c1ccccc1)NO2 | 791
Cc1ccccc1Cc1nc2ccccc2n1CC(N)=O | 570
O=C(NCc1ccco1)C1CN(S(=O)(=O)c2ccccc2)CC12CCCCC2 (stereo unspecified) | 942
CC(C)N1CCN(C(=O)CN2CCN(Cc3ccccc3)C2=O)CC1 | 565
CCOc1ccc(-c2nc(-c3cccc(-c4ccn[nH]4)c3)no2)cc1OCC | 1080
CC(C)C(=O)Nc1cc2c(cc1N(C)C)n(C)c(=O)c(=O)n2C | 631
O=C(NCCC1=CCCCC1)C1CCCN(C(=O)Cc2cccc3ccccc23)C1 (stereo unspecified) | 1030
CCCNC(=O)c1ccc2nc(CCc3ccc(NC(=O)C(C)C)cc3)[nH]c2c1 | 617
O=C(N1CCCC1)N1CCN(c2ccccc2F)CC1 | 762

Next, values leading:

RP-LC retention time [s] | SMILES
836 | COc1ccc(C(=O)Nc2cc(C(=O)O)ccc2N2CCN(c3ncccn3)CC2)cc1
860 | CCC(=O)N1CCc2cc(S(=O)(=O)CCC(=O)NC3CCCc4ccccc43)ccc21 (stereo unspecified)
759 | Cc1ccc(-c2nnc(SCc3cc(=O)n4oc(C)cc4n3)o2)cc1
1020 | C[C@H]1CN(C(=O)Cc2ccccc2F)C[C@@H]1c1nc(-c2ccccc2)no1
1000 | CCc1cccc(NC(=O)Cn2nc(N3CCCC3)c3ccccc3c2=O)c1
832 | Cc1cc(C)cc(C(=O)N2CCCC(C(=O)NCc3cccs3)C2)c1 (stereo unspecified)
698 | CSc1ccc(CNC(=O)Cn2c(C)cc(C)c(C#N)c2=O)cc1
1050 | Cc1cc2nc(C(=O)Nc3cc(F)ccc3C)cc(C)n2n1
915 | Clc1ccccc1C1Cn2cnc(-c3nc(-c4ccncc4)no3)c2CO1 (stereo unspecified)
873 | Cc1ccc(S(=O)(=O)c2ccc([N+](=O)[O-])o2)cc1
1040 | CCN1C(=O)COc2ccc(-c3nc(NC(=O)c4cccc(OC)c4)sc3C)cc21
751 | CC1=C(c2ccc(F)cc2)S(=O)(=O)N=C1N1CCCN(C(=O)C(C)C)CC1
604 | Cn1cc(C2=CCN(C(=O)NC(C)(C)C)CC2)c2cccnc21
852 | Cc1ccc(NC(=O)Nc2nc(C(=O)Nc3ccc4c(c3)OCO4)cs2)cc1
633 | CCN(CC)S(=O)(=O)c1ccc2c(c1)N(CC(=O)NCCN(C)C)C(=O)C1CCCCN21 (stereo unspecified)
921 | Cc1cc(C)cc(S(=O)(=O)NCc2c(-c3ccccc3)nc3sc(C)nn23)c1
920 | Cc1cc(C)n(-c2ccnc(N3CCC(C(=O)N4CCC(C)CC4)CC3)n2)n1
702 | CN(C)c1ccc(C(=O)Nc2cnc(N3CCCC3)nc2)cc1
665 | Cc1ccc(C(=O)NCc2cnoc2-c2ccc(F)cc2)cn1
766 | Cc1ccc(NC(=O)N(C)CC2CCOC2)c(Cl)c1 (stereo unspecified)
698 | O=C(Cn1c(=O)c2cc(-c3ccco3)nn2c2ncccc21)NC1CCCC1
652 | CCOc1ccc(NC(=O)Cn2c(N3CCOCC3)nc3cc(C)n(C)c3c2=O)cc1
845 | Cc1cccc(NC(=O)C2CCCN(c3ncnc4c3oc3ccccc34)C2)c1 (stereo unspecified)
635 | CCOC(=O)c1c(C)[nH]c(C(=O)N2CCC(C(C)C(=O)NCc3ccc(N(C)C)cc3)CC2)c1C (stereo unspecified)

RP-LC retention time [s] | SMILES
960 | CSc1ccc(CNC(=O)C2CCN(c3c(C#N)cnc4ccc(Cl)cc34)CC2)cc1
692 | COc1ccc(NC(=O)N2CCCC(Cn3cnc4cccnc43)C2)cc1Cl (stereo unspecified)
951 | CCOc1ccc(CCNC(=O)C2CCCN(C(=O)c3cc4sccc4n3CC)C2)cc1OCC (stereo unspecified)
723 | CC1CN(CC(=O)N2CCN(Cc3ccc4c(c3)OCO4)CC2)c2ccccc2S1 (stereo unspecified)
676 | CCN(CC)C(=O)C1CCC(=O)N(c2ccc(OC)cc2)C1c1ccc(OC)c(OC)c1 (stereo unspecified)
798 | COC(=O)c1scc(-c2ccc(C)cc2)c1S(=O)(=O)N1CCC(C(N)=O)CC1
577 | O=C(c1ccc2ncnc(N3CCCC3)c2c1)N1CCCCC1
600 | COc1ccc(Nc2c(C(=O)N3CCCC3)cnc3nc(C)ccc23)c(OC)c1
638 | CCc1nnc2nc(N3CCN(C(=O)c4ccc(Cl)s4)CC3)cc(C)n12
706 | Cc1cccc(NC(=O)Cn2cnc3c(c2=O)CCCC3)c1
785 | Cc1cc(SCC(=O)Nc2ccc(Cl)cc2C(F)(F)F)nc(-c2cccnc2)n1
841 | Cc1ccc(-n2c(=O)c3c(cc(C)n3C)n(CC(=O)Nc3ccccc3F)c2=O)cc1
675 | O=C(CSc1nnc2scc(-c3ccc(Cl)cc3)n12)NCC1CCCO1 (stereo unspecified)
962 | CCC(C)C(=O)NC1CCN(C2=NS(=O)(=O)C(c3ccc(C(C)C)cc3)=C2C)CC1 (stereo unspecified)
563 | O=C(NCCCN1CCOCC1)c1ccc(-c2ccc(N3CCCCC3)nn2)cc1
679 | O=C(Nc1cccc(-c2nnc3n2CCCC3)c1)c1ccc2c(c1)OCO2
728 | Cc1ccc(CNC(=O)Cn2cnc3nc4c(cc3c2=O)CCCC4)cc1
1120 | COc1ccc(CNC(=O)C2CCCN(c3nccnc3Sc3ccccc3)C2)cc1OC (stereo unspecified)
680 | Cc1ccc(-c2noc(Cn3ccn(-c4ccccc4C)c(=O)c3=O)n2)cc1
883 | CSc1cccc(NC(=O)N2CCc3c(c(-c4nc(C5CC5)no4)nn3C)C2)c1
1050 | Cc1ccc(-c2nc3nc(C)cc(N4CCCCC4C)n3n2)cc1 (stereo unspecified)
623 | Cc1ccc(CN2CCN(C(=O)C3CCc4nc(N5CCOCC5)ncc4C3)CC2)cc1C (stereo unspecified)
591 | COc1ccc(-c2noc(N3CCC(C(=O)NCCN4CCOCC4)CC3)n2)cc1OC
